Test results taken from CN1119437A, “环缩酚酸肽pf1022衍生物” (Meiji Seika Kaisha Ltd, priority 1993, dated 1996).

Columns and labels:
鸡蛔虫 = experiment: Chicken roundworm removal test (Test 1); assay type: in vivo
巴西日园线虫 = experiment: Anthelmintic efficacy against rat intestinal nematode (Test 3); assay type: in vivo; settings: male Wistar rats, 2000 larvae s.c., 10 mg/kg 7 days after infection, adult worms in small intestine counted 10 days after dosing

Compound | 存留虫收(average value±SD) (巴西日园线虫) | 杀虫率 (鸡蛔虫; dose 5 mg/kg) [%] | further results
CC(C)C[C@H]1C(=O)O[C@H](Cc2ccc(O)cc2)C(=O)N(C)[C@@H](CC(C)C)C(=O)O[C@H](C)C(=O)N(C)[C@@H](CC(C)C)C(=O)O[C@H](Cc2ccccc2)C(=O)N(C)[C@@H](CC(C)C)C(=O)O[C@H](C)C(=O)N1C [PF1022 E, 环—(—L—MeLeu—D—Lac—L—MeLeu—D—TYRA—L—MeLeu-D—Lac—L—Mekeu—D—PhLac)] | 2175±134.4 | – | 杀虫率 (鸡蛔虫; dose 0.5 mg/kg): 70%
CC(C)CC1C(=O)OC(C)C(=O)N(C)C(CC(C)C)C(=O)OC(C)C(=O)N(C)C(CC(C)C)C(=O)OC(C)C(=O)N(C)C(CC(C)C)C(=O)OC(C)C(=O)N1C (centres unmarked) [PF1022-002, 环—(L—meLeu—D—Lac—)4] | 1976.5±306.2 | – | –
CC(C)C[C@H]1OC(=O)[C@H](CC(C)C)N(C)C(=O)[C@@H](C)OC(=O)[C@H](CC(C)C)N(C)C(=O)[C@@H](Cc2ccccc2)OC(=O)[C@H](CC(C)C)N(C)C(=O)[C@@H](C)OC(=O)[C@H](CC(C)C)N(C)C1=O [PF1022-003, 环—(—L—MeLeu—D—Lac—L—MeLeu—D—PhLac—L—Meleu—D—Lac—L—Meleu—D—LEUA)] | 689±48.1 | – | 杀虫率 (鸡蛔虫; dose 10 mg/kg): 76%
CC(C)CC1NC(=O)C(Cc2ccccc2)OC(=O)C(CC(C)C)N(C)C(=O)C(C)OC(=O)C(CC(C)C)NC(=O)C(Cc2ccccc2)OC(=O)C(CC(C)C)N(C)C(=O)C(C)OC1=O (centres unmarked) [PF1022-218, 环—(L—MeLeu—D—PhLac—L—Leu—D—Lac)2] | 2400±362.0 | – | –
CC(C)C[C@@H]1NC(=O)[C@@H](C)OC(=O)[C@H](CC(C)C)N(C)C(=O)[C@@H](Cc2ccccc2)OC(=O)[C@H](CC(C)C)NC(=O)[C@@H](C)OC(=O)[C@H](CC(C)C)N(C)C(=O)[C@@H](Cc2ccccc2)OC1=O [PF1022-219, 环—(L—MeLeu—D—Lac—L—Leu—D—PhLac)2] | 2084.5±94.0 | – | –
CC(C)CC1C(=O)OC(CC2CCCCC2)C(=O)N(C)C(CC(C)C)C(=O)OC(C)C(=O)N(C)C(CC(C)C)C(=O)OC(CC2CCCCC2)C(=O)N(C)C(CC(C)C)C(=O)OC(C)C(=O)N1C (centres unmarked) [PF1022-ADH, 十二氢—PF 1022] | – | 30 | –
CC(C)CC1C(=O)OC(CC2CCCCC2)C(=O)N(C)C(CC(C)C)C(=O)OC(C)C(=O)N(C)C(CC(C)C)C(=O)OC(Cc2ccccc2)C(=O)N(C)C(CC(C)C)C(=O)OC(C)C(=O)N1C (centres unmarked) [PF1022-AHH, 六氢—PF1022] | – | 62 | –
CC(C)C[C@H]1C(=O)O[C@H](Cc2ccccc2)C(=O)N(C)[C@@H](CC(C)C)C(=O)O[C@H](C)C(=O)N(C)[C@@H](CC(C)C)C(=O)O[C@H](Cc2ccccc2)C(=O)N(C)[C@@H](CC(C)C)C(=O)O[C@H](C)C(=O)N1C [PF1022] | 403±32.5 | – | 杀虫率 (鸡蛔虫; dose 0.5 mg/kg): 50-70%; 杀虫率 (鸡蛔虫; dose 1.0 mg/kg): 60-86%
环—(L—MeLeu—D—PhLac—L—MeLeu—D—Lac—L—MeLeu—D—TYRA(OBn)—L—MeLeu—D—Lac) [PF1022-022] | – | 84 | –
环—(L—MeLeu—D—VALA—L—MeLeu—D—Lac)2 [PF1022-209] | 827±388.9 | – | –
